Measured values from patent US12503432B2, “Ionizable lipids for nucleic acid delivery” (Global Life Sciences Solutions Canada ULC, priority 2019, dated 2025).
One block for each compound: values may come before it.

Legend:
[1] = TNS fluorescence assay: experimental pKa of formulated lipid nanoparticles; assay type: physicochemical; settings: experimental surface pKa of empty LNP, cationic lipid/DSPC/cholesterol/PEG-lipid (50/10/38.5/1.5)
Protocol: The pKa of each cationic lipid was determined in lipid nanoparticles using an assay based on fluorescence of 6-(p-Toluidino)-2-naphthalenesulfonic acid sodium salt (TNS, Sigma Aldrich), which is a fluorescent probe for the conformational state of proteins^5. Empty lipid nanoparticles comprising of cationic lipid/DSPC/cholesterol/PEG-lipid (50/10/38.5/1.5) in distilled water at a concentration of 3.125 mM total lipid are formulated using NanoAssemblr® Spark™, and were then was characterized for LNP quality on the Zetasizer™ using a 30× dilution with 1×PBS in the low volume cuvette. Lipid nanoparticles were further diluted 4× using distilled water to 0.781 mM total lipid. TNS was prepared as a 25 μM stock solution in distilled water. Then 6.4 μL of diluted LNP samples of 0.781 mM total lipid were mixed with 10 μL of diluted TNS to a final volume of 250 μL with buffer containing 10 mM HEPES, 10 mM MES, 10 mM NH4OAc and 130 mM NaCl where the pH ranged from 3 to 9 in 0.5 pH increments.
Samples were mixed thoroughly, and the fluorescence intensity was measured at room temperature in a BioTek™ Synergy™ H1 Hybrid Multi-Mode Monochromator™ Fluorescence Microplate Reader using excitation and emission wavelengths of 321 nm and 445 nm respectively. A sigmoidal best fit analysis was applied to the fluorescence data using GraphPad Prism™ software, and the pKa was measured as the pH at half-maximal fluorescence intensity.

[2] = LNP characterization: size and PDI by dynamic light scattering, mRNA encapsulation efficiency by RiboGreen assay; assay type: physicochemical
Protocol: Particle sizes and “polydispersity index” (PDI) of the lipid particle were measured by dynamic light scattering (DLS). PDI indicates the width of the particle distribution. This is a parameter calculated from a cumulative analysis of the (DLS)-measured intensity autocorrelation function assuming a single particle size mode and a single exponential fit to the autocorrelation function. […] The particles produced by mechanical micromixers such as the NanoAssemblr® Spark™ and NanoAssemblr® Benchtop (Precision NanoSystems Inc.) are substantially homogeneous in size assuming all other variables are neutral. A lower PDI indicates a more homogenous population of lipid particles. The Spark™ instrument is used in a screening setting to identify the lead compositions. Once the composition is selected, the lipid particle can be fine-tuned using the NanoAssemblr® Benchtop. Once the process parameters Flow Rate Ratio and Total Flow Rate is identified for the specific nanoparticle composition, the nanoparticle technology can be scaled up using the same process parameter values.
Lipid particles were also manufactured by a larger microfluidic mixer instrument, the NanoAssemblr® Ignite™ for testing. Briefly, 350 μL of mRNA was diluted using 100 mM sodium acetate buffer to the required concentration of 0.2 to 0.3 mg/mL. Lipid particle samples were then prepared by running both fluids, namely, nucleic acids in aqueous solvent and Lipid Mix in ethanol at a flow ratio of 3:1 and at a total flow rate of 12 ml/min in the microfluidic mixer. Following mixing in the microfluidic device, the post cartridge lipid nucleic acid particle sample was diluted into RNAse free tubes containing three to 40 volumes of phosphate buffered saline (PBS), pH 7.4. Ethanol was finally removed through dialysis in PBS, pH 7, or using Amicon™ centrifugal filters (Millipore, USA) at 3000 RPM, or using TFF systems. Once the required concentration was achieved, the lipid nucleic acid particles were filter sterilized using 0.2 μm filters in aseptic conditions. Final encapsulation efficiency was measured by the Ribogreen™ assay. Quant-iT™ RiboGreen® RNA Reagent and Kit (Invitrogen) following manufacturer directions.
Messenger RNA or plasmid nucleic acid therapeutic (NAT) as described below, was diluted using sodium acetate buffer to the required concentration. Lipid nucleic acid particle (LNAP) samples were then prepared by running both fluids using the NanoAssemblr® Spark instrument. Briefly, […] of nucleic acids in 100 mM sodium acetate buffer in a total volume of 32 μL was mixed with 16 μL of 37.5 mM lipid mix solution as required by the N/P ratios (4, 6, or 10 in illustrated examples). The microfluidically mixed lipid nucleic acid particles (LNAP) made in the instrument were immediately diluted down with 48 μL Ca++ and Mg++ free 1× PBS at pH 7.4 in the aqueous output well. These LNAP were immediately collected into microcentrifuge tubes containing 96 μL of the same buffer at pH 7.4. Encapsulation efficiency was measured by a modified Ribogreen™ assay (Quanti-iT RiboGreen™ RNA assay kit, Fisher). This information was used to establish the desired dosage.
After the lipid particles were made as described in Example 17, particle size (hydrodynamic diameter of the particles) was determined by Dynamic Light Scattering (DLS) using a ZetaSizer™ Nano ZS™ (Malvern Instruments, UK). He/Ne laser of 633 nm wavelength was used as the light source. Data were measured from the scattered intensity data conducted in backscattering detection mode (measurement angle=173). Measurements were an average of 10 runs of two cycles each per sample. Z-Average size was reported as the particle size, and is defined as the harmonic intensity averaged particle diameter. These LNP characteristics, as well as the results of the mRNA encapsulation efficiency for various Lipid Mixes are also described in the application are shown in Tables 4, 5 and 6. […]

C57BL/6 mice = assay: In vivo delivery of EPO-encoded mRNA LNP via intravenous route, serum EPO ELISA; set-up: key to EPO Protein expression: IV in mice: *: The number of asterix symbols indicates protein expression levels interpreted by the inventors from quantitative data; **: The number of asterix symbols indicates protein expression levels interpreted by the inventors from quantitative data; ***: The number of asterix symbols indicates protein expression levels interpreted by the inventors from quantitative data; ****: The number of asterix symbols indicates protein expression levels interpreted by the inventors from quantitative data; *****: The number of asterix symbols indicates protein expression levels interpreted by the inventors from quantitative data; *******: The number of asterix symbols indicates protein expression levels interpreted by the inventors from quantitative data; settings: qualitative grade interpreted from quantitative data
From the text: Lipid Nanoparticles with the composition IL/DSPC/Cholesterol/PEG-DMG2000 (LM 02—see Table 3) were used to encapsulate recombinant human erythropoietin (EPO) encoded mRNA with 5-moU modifications [TriLink CleanCapo 5-moU EPO mRNA L7201]. To create the LNP, lipid mix in ethanol was microfluidically mixed with a low PH buffered solution of 5-moU EPO mRNA mixer at an N/P ratio of 6 using a NanoAssemblr® Ignite™ microfluidic mixer. The microfluidically mixed particles were downstream processed using Amicon® ultra 15 10 kDa MWCO units (EMD Millipore) filtration technique. The RNA loaded lipid particles were then characterized for size, PDI and Encapsulation Efficiency (EE). Size and PDI were measured using dynamic light scattering techniques described above, and nucleic acid encapsulation efficiency was calculated using a Quant-iT RiboGreen RNA assay as described supra, modified to use hEPO mNA as the standard instead if the standard RNA in the kit. The hydrodynamic diameter of these mRNA-LNPs was ˜70 nm with a PDI in the range of 0.02 to 0.1 and an encapsulation efficiency of ˜97.8%.
Animals were handled according to the Institutional Animal Care and Use Committee ethics protocols. For experiments, 6-8 week old C57BL/6 mice were purchased from Envigo (South Kent, WA, USA). For in vivo activity, female C57BL/6 mice were treated intravenously with EPO mRNA LNPs at specified dosages of 0.5-3 mg/Kg. Samples of 50-75 μL of blood were collected 6 h post administration via saphenous vein, and at regular time intervals of 24 h or 48 h.
After harvest, blood was immediately prepared to produce serum samples using standard techniques, and stored at −80 degrees C. Briefly, after collection, the blood was allowed to clot at room temperature for 15-30 minutes. The clot was removed by centrifuging the tubes at 1000-2000×g for 10 min at 4 degrees Celsius. The clear golden-yellow color supernatant was carefully removed and transferred to sterile screw-capped clear polypropylene tubes on ice. The serum was then stored, if necessary, at −80° C. until analysis.
Samples were thawed, then analyzed at appropriate dilutions for EPO protein expression and for cytokine/chemokine levels. The total serum EPO levels were evaluated using Quantikine® IVD EPO ELISA kit (Bio-Techne, Minneapolis, MN, USA).
Following i.v administration of a 0.5 mg/Kg dose of recombinant human EPO-encoded mRNA LNPs containing ionizable lipid MC3, PNI 121 or PNI 123 using the LM02 composition at N/P 6, EPO expression levels at 6 h (upper, FIG. 6) and at 24 h (lower, FIG. 6) in C56BL/6 mice were examined; hEPO protein was measured using Quantikine® IVD® ELISA Human Erythropoietin Immunoassay protocol.

[3] = 5-moU EPO encoded LNPs, IL:DSPC:cholesterol:DMG-PEG (50:10:38.5:1.5), N/P 6
[4] = OVA encoded LNPs, payload WT OVA, LM02, N/P 8
[5] = Table 4 LNPs, payload and lipid mix not stated

- pKa [1]: 5.5
SMILES: CC/C=C\CC1C(CC(=O)OCC(COC(=O)CCCCCCCC2CC2CCCCCCCC)OC(=O)CCCCCCCC2CC2CCCCCCCC)CCC1OC(=O)CCN(C)C (centres unmarked) [PNI 551]

- Diameter (Z. ave, nm) [2, 3]: 64.8 nm
- Encapsulation Efficiency (%) [2, 3]: 97.1%
- Polydispersity Index (PDI) [2, 3]: 0.04
- Diameter (Z. ave, nm) [2, 4]: 74.9 nm
- Encapsulation Efficiency (%) [2, 4]: 97.0%
- Polydispersity Index (PDI) [2, 4]: 0.02
- Diameter (Z. ave, nm) [2, 5]: 61.7 nm
- Encapsulation Efficiency (%) [2, 5]: 88.2%
- Polydispersity Index (PDI) [2, 5]: 0.09
- pKa [1]: 5.56
SMILES: CC/C=C\CC1C(CC(=O)OCC(COCCCCCCCC/C=C\C/C=C\CCCCC)OCCCCCCCC/C=C\C/C=C\CCCCC)CCC1OC(=O)CCN(C)C (centres unmarked) [PNI 128]
- EPO Protein expression: IV in mice (C57BL/6 mice): ****

- pKa [1]: 5.96
SMILES: CC/C=C\CC1C(CC(=O)OCCC(CCCCCCCC/C=C\C/C=C\CCCCC)OC(=O)C(CCCCCC)CCCCCCCC)CCC1OC(=O)C1(C)CCN(C)CC1 (centres unmarked) [PNI 563]

- Diameter (Z. ave, nm) [2, 3]: 73.6 nm
- Encapsulation Efficiency (%) [2, 3]: 98.7%
- Polydispersity Index (PDI) [2, 3]: 0.14
- pKa [1]: 6.31
SMILES: CC/C=C\CC1C(CC(=O)OCC(COCCCCCCCCC2CC2CCCCCCCC)OCCCCCCCCC2CC2CCCCCCCC)CCC1OC(=O)CCCN(C)C (centres unmarked) [PNI 543]
- EPO Protein expression: IV in mice (C57BL/6 mice): ***

- pKa [1]: 6.27
SMILES: CC/C=C\CC1C(CC(=O)OCC(COC(=O)CCCCCCCC2CC2CCCCCCCC)OC(=O)CCCCCCCC2CC2CCCCCCCC)CCC1OC(=O)CCCN(C)C (centres unmarked) [PNI 515]

- pKa [1]: 5.5
SMILES: CCCCCCCCCCCCCCOCC(COC(=O)CC1CCC(OC(=O)CCN(C)C)C1CCCCC)OCCCCCCCCCCCCCC (centres unmarked) [PNI 548]

- Diameter (Z. ave, nm) [2, 3]: 88.0 nm
- Encapsulation Efficiency (%) [2, 3]: 98.7%
- Polydispersity Index (PDI) [2, 3]: 0.87
- pKa [1]: 4.31
SMILES: CC/C=C\CC1C(CC(=O)OCC(COCCCCCCCC/C=C\C/C=C\CCCCC)OCCCCCCCC/C=C\C/C=C\CCCCC)CCC1OC(=O)Cc1cn(C)cn1 (centres unmarked) [PNI 143]

- pKa [1]: 6.77
SMILES: CCCCC/C=C\C/C=C\CCCCCCCCOCC(COC(=O)CC1CCC(OC(=O)CCCN(C)C)C1)OCCCCCCCC/C=C\C/C=C\CCCCC (centres unmarked) [PNI 148]

- pKa [1]: 6.2
SMILES: CC/C=C\CC1C(CC(=O)OCCC(CCCCCCCC/C=C\C/C=C\CCCCC)OC(=O)C(CCCCCC)CCCCCCCC)CCC1OC(=O)CCCN(C)C (centres unmarked) [PNI 510]

- pKa [1]: 5.95
SMILES: CC/C=C\CC1C(CC(=O)OCC(COCCCCCCCCCCCCCC)OCCCCCCCCCCCCCC)CCC1OC(=O)CCN(C)C (centres unmarked) [PNI 547]

- pKa [1]: 5.48
SMILES: CC/C=C\CC1C(CC(=O)OCC(COCCCCCCCC/C=C\C/C=C\CCCCC)OCCCCCCCC/C=C\C/C=C\CCCCC)CCC1OC(=O)C1CCN(C)C1 (centres unmarked) [PNI 135]

- pKa [1]: 6.23
SMILES: CC/C=C\CC1C(CC(=O)OCC(COCCCCCCCC/C=C\C/C=C\CCCCC)OCCCCCCCC/C=C\C/C=C\CCCCC)CCC1OC(=O)CN1CCN(C)CC1 (centres unmarked) [PNI 567]

- pKa [1]: 5.42
SMILES: CC/C=C\CC1C(CC(=O)OCCC(CCCCCCCC/C=C\C/C=C\CCCCC)OC(=O)C(CCCCCC)CCCCCCCC)CCC1OC(=O)CCN(C)C (centres unmarked) [PNI 552]

- pKa [1]: 6.36
SMILES: CC/C=C\CC1C(CC(=O)OCCC(CCCCCCCC)OC(=O)C(CCCCCC)CCCCCCCC)CCC1OC(=O)CCCN(C)C (centres unmarked) [PNI 562]

- pKa [1]: 6.28
SMILES: CC/C=C\CC1C(CC(=O)OCC(COC(=O)CCCCCCC/C=C\C/C=C\CCCCC)OC(=O)CCCCCCC/C=C\C/C=C\CCCCC)CCC1OC(=O)CCCN(C)C (centres unmarked) [PNI 269]
